How the values were obtained:
SNB-19 = assay: NCI single dose (10 µM) SRB screen; type: cell-based, human; conditions: CNS cancer, 48 h
SW-620 = assay: NCI single dose (10 µM) SRB screen; type: cell-based, human; conditions: colon cancer, 48 h
NCI-H226 = assay: NCI single dose (10 µM) SRB screen; type: cell-based, human; conditions: non-small cell lung cancer, 48 h
SF-295 = assay: NCI single dose (10 µM) SRB screen; type: cell-based, human; conditions: CNS cancer, 48 h
NCI-H23 = assay: NCI single dose (10 µM) SRB screen; type: cell-based, human; conditions: non-small cell lung cancer, 48 h
MDA-MB-435 = assay: NCI single dose (10 µM) SRB screen; type: cell-based, human; conditions: melanoma, 48 h
Staphylococcus aureus = assay: Agar well diffusion method
Bacillus subtilis = assay: Agar well diffusion method
RPMI-8226 = assay: NCI single dose (10 µM) SRB screen; type: cell-based, human; conditions: leukaemia, 48 h
BT-549 = assay: NCI single dose (10 µM) SRB screen; type: cell-based, human; conditions: breast cancer, 48 h
OVCAR-8 = assay: NCI single dose (10 µM) SRB screen; type: cell-based, human; conditions: ovarian cancer, 48 h
HCC-2998 = assay: NCI single dose (10 µM) SRB screen; type: cell-based, human; conditions: colon cancer, 48 h
Aspergillus flavus = assay: Agar well diffusion method
SF-268 = assay: NCI single dose (10 µM) SRB screen; type: cell-based, human; conditions: CNS cancer, 48 h
OVCAR-3 = assay: NCI single dose (10 µM) SRB screen; type: cell-based, human; conditions: ovarian cancer, 48 h
CAKI-1 = assay: NCI single dose (10 µM) SRB screen; type: cell-based, human; conditions: renal cancer, 48 h
HOP-62 = assay: NCI single dose (10 µM) SRB screen; type: cell-based, human; conditions: non-small cell lung cancer, 48 h
SR = assay: NCI single dose (10 µM) SRB screen; type: cell-based, human; conditions: leukaemia, 48 h
HS578T = assay: NCI single dose (10 µM) SRB screen; type: cell-based, human; conditions: breast cancer, 48 h
UACC-62 = assay: NCI single dose (10 µM) SRB screen; type: cell-based, human; conditions: melanoma, 48 h
UO-31 = assay: NCI single dose (10 µM) SRB screen; type: cell-based, human; conditions: renal cancer, 48 h
TK-10 = assay: NCI single dose (10 µM) SRB screen; type: cell-based, human; conditions: renal cancer, 48 h
NCI-H522 = assay: NCI single dose (10 µM) SRB screen; type: cell-based, human; conditions: non-small cell lung cancer, 48 h
MALME-3M = assay: NCI single dose (10 µM) SRB screen; type: cell-based, human; conditions: melanoma, 48 h
HOP-92 = assay: NCI single dose (10 µM) SRB screen; type: cell-based, human; conditions: non-small cell lung cancer, 48 h
Escherichia coli = assay: Agar well diffusion method
IGROV1 = assay: NCI single dose (10 µM) SRB screen; type: cell-based, human; conditions: ovarian cancer, 48 h
COLO 205 = assay: NCI single dose (10 µM) SRB screen; type: cell-based, human; conditions: colon cancer, 48 h
PC-3 = assay: NCI single dose (10 µM) SRB screen; type: cell-based, human; conditions: prostate cancer, 48 h
NCI/ADR-RES = assay: NCI single dose (10 µM) SRB screen; type: cell-based, human; conditions: ovarian cancer, 48 h
M14 = assay: NCI single dose (10 µM) SRB screen; type: cell-based, human; conditions: melanoma, 48 h
NCI 60 cancer cell lines = assay: NCI single dose (10 µM) SRB screen, mean over panel; type: cell-based, human; conditions: mean over 60 cell lines, 48 h
NCI-H322M = assay: NCI single dose (10 µM) SRB screen; type: cell-based; conditions: non-small cell lung cancer, 48 h
U251 = assay: NCI single dose (10 µM) SRB screen; type: cell-based, human; conditions: CNS cancer, 48 h
LOX IMVI = assay: NCI single dose (10 µM) SRB screen; type: cell-based, human; conditions: melanoma, 48 h
Candida albicans = assay: Agar well diffusion method
SN12C = assay: NCI single dose (10 µM) SRB screen; type: cell-based, human; conditions: renal cancer, 48 h
MDA-MB-468 = assay: NCI single dose (10 µM) SRB screen; type: cell-based, human; conditions: breast cancer, 48 h
UACC-257 = assay: NCI single dose (10 µM) SRB screen; type: cell-based, human; conditions: melanoma, 48 h
A549/ATCC = assay: NCI single dose (10 µM) SRB screen; type: cell-based, human; conditions: non-small cell lung cancer, 48 h
SNB-75 = assay: NCI single dose (10 µM) SRB screen; type: cell-based, human; conditions: CNS cancer, 48 h
OVCAR-4 = assay: NCI single dose (10 µM) SRB screen; type: cell-based, human; conditions: ovarian cancer, 48 h
RXF 393 = assay: NCI single dose (10 µM) SRB screen; type: cell-based, human; conditions: renal cancer, 48 h
MDA-MB-231 = assay: NCI single dose (10 µM) SRB screen; type: cell-based, human; conditions: breast cancer, 48 h
SF-539 = assay: NCI single dose (10 µM) SRB screen; type: cell-based, human; conditions: CNS cancer, 48 h
786-0 = assay: NCI single dose (10 µM) SRB screen; type: cell-based, human; conditions: renal cancer, 48 h
SK-MEL-28 = assay: NCI single dose (10 µM) SRB screen; type: cell-based, human; conditions: melanoma, 48 h
MOLT-4 = assay: NCI single dose (10 µM) SRB screen; type: cell-based, human; conditions: leukaemia, 48 h
T-47D = assay: NCI single dose (10 µM) SRB screen; type: cell-based, human; conditions: breast cancer, 48 h
HCT-15 = assay: NCI single dose (10 µM) SRB screen; type: cell-based, human; conditions: colon cancer, 48 h
DU-145 = assay: NCI single dose (10 µM) SRB screen; type: cell-based, human; conditions: prostate cancer, 48 h

With `CCOC(=O)C1=C(C)NC(C)=C(C(=O)OCC)C1c1cccc(C#N)c1` [Compound 1b, Diethyl 4-(3-cyanophenyl)-2,6-dimethyl-1,4-dihydropyridine-3,5-dicarboxylate] the “GI% SNB-19” value (SNB-19) was “– (Only GI% ≥ 10 are shown)”, the “GI% SW-620” value (SW-620) was “– (Only GI% ≥ 10 are shown)” and the “GI% NCI-H226” value (NCI-H226) was “– (Only GI% ≥ 10 are shown)”. The “GI% SF-295” value (SF-295) was “– (Only GI% ≥ 10 are shown)”, the “GI% NCI-H23” value (NCI-H23) was “– (Only GI% ≥ 10 are shown)” and the “GI% MDA-MB-435” value (MDA-MB-435) was 42%. The zone of inhibition at 1000 µg/mL (Staphylococcus aureus; Staphylococcus aureus, 24 h, read-out: Diameter of inhibition zone, S. aureus) was 14 mm, the “% activity index, S. aureus” value (Staphylococcus aureus; relative to ciprofloxacin) was 58.3% and the zone of inhibition at 1000 µg/mL (Bacillus subtilis; Bacillus subtilis, 24 h, read-out: Diameter of inhibition zone, B. subtilis) was 9 mm. The “% activity index, B. subtilis” value (Bacillus subtilis; relative to ciprofloxacin) was 39.1%, the “GI% RPMI-8226” value (RPMI-8226) was “– (Only GI% ≥ 10 are shown)” and the “GI% BT-549” value (BT-549) was “– (Only GI% ≥ 10 are shown)”. For the same compound, the “GI% OVCAR-8” value (OVCAR-8) was “– (Only GI% ≥ 10 are shown)”, the “GI% HCC-2998” value (HCC-2998) was “– (Only GI% ≥ 10 are shown)” and the zone of inhibition at 1000 µg/mL (Aspergillus flavus; Aspergillus flavus, 24 h, read-out: Diameter of inhibition zone, A. flavus) was 16 mm. For the same compound, the “% activity index, A. flavus” value (Aspergillus flavus; relative to clotrimazole) was 64%, the “GI% SF-268” value (SF-268) was “– (Only GI% ≥ 10 are shown)” and the “GI% OVCAR-3” value (OVCAR-3) was “– (Only GI% ≥ 10 are shown)”. The “GI% CAKI-1” value (CAKI-1) was 31%, the “GI% HOP-62” value (HOP-62) was “– (Only GI% ≥ 10 are shown)” and the “GI% SR” value (SR) was 48%. For the same compound, the “GI% HS578T” value (HS578T) was 16%, the “GI% UACC-62” value (UACC-62) was 20% and the “GI% UO-31” value (UO-31) was 13%. For the same compound, the “GI% TK-10” value (TK-10) was “– (Only GI% ≥ 10 are shown)”, the “GI% NCI-H522” value (NCI-H522) was 12% and the “GI% MALME-3M” value (MALME-3M) was “– (Only GI% ≥ 10 are shown)”. The “GI% HOP-92” value (HOP-92) was 10%, the zone of inhibition at 1000 µg/mL (Escherichia coli; Escherichia coli, 24 h, read-out: Diameter of inhibition zone, E. coli) was 7 mm and the “% activity index, E. coli” value (Escherichia coli; relative to ciprofloxacin) was 26.9%. For the same compound, the “GI% IGROV1” value (IGROV1) was “– (Only GI% ≥ 10 are shown)”, the “GI% COLO 205” value (COLO 205) was “– (Only GI% ≥ 10 are shown)” and the “GI% PC-3” value (PC-3) was 20%. The “GI% NCI/ADR-RES” value (NCI/ADR-RES) was “– (Only GI% ≥ 10 are shown)”, the “GI% M14” value (M14) was “– (Only GI% ≥ 10 are shown)” and the “Mean GI%” value (NCI 60 cancer cell lines) was 8%. For the same compound, the “GI% NCI-H322M” value (NCI-H322M) was “– (Only GI% ≥ 10 are shown)”, the “GI% U251” value (U251) was “– (Only GI% ≥ 10 are shown)” and the “GI% LOX IMVI” value (LOX IMVI) was “– (Only GI% ≥ 10 are shown)”. The zone of inhibition at 1000 µg/mL (Candida albicans; Candida albicans, 24 h, read-out: Diameter of inhibition zone, C. albicans) was 15 mm, the “% activity index, C. albicans” value (Candida albicans; relative to clotrimazole) was 55.5% and the “GI% SN12C” value (SN12C) was “– (Only GI% ≥ 10 are shown)”. The “GI% MDA-MB-468” value (MDA-MB-468) was 22%, the “GI% UACC-257” value (UACC-257) was “– (Only GI% ≥ 10 are shown)” and the “GI% A549/ATCC” value (A549/ATCC) was “– (Only GI% ≥ 10 are shown)”. The “GI% SNB-75” value (SNB-75) was 38%, the “GI% OVCAR-4” value (OVCAR-4) was “– (Only GI% ≥ 10 are shown)” and the “GI% RXF 393” value (RXF 393) was 10%. For the same compound, the “GI% MDA-MB-231” value (MDA-MB-231) was “– (Only GI% ≥ 10 are shown)”, the “GI% SF-539” value (SF-539) was “– (Only GI% ≥ 10 are shown)” and the “GI% 786-0” value (786-0) was “– (Only GI% ≥ 10 are shown)”. For the same compound, the “GI% SK-MEL-28” value (SK-MEL-28) was “– (Only GI% ≥ 10 are shown)”, the “GI% MOLT-4” value (MOLT-4) was “– (Only GI% ≥ 10 are shown)” and the “GI% T-47D” value (T-47D) was 23%. The “GI% HCT-15” value (HCT-15) was 23% and the “GI% DU-145” value (DU-145) was “– (Only GI% ≥ 10 are shown)”.

Source: PMC9481151, “Discovery of new symmetrical and asymmetrical nitrile-containing 1,4-dihydropyridine derivatives as dual kinases and P-glycoprotein inhibitors: synthesis, in vitro assays, and in silico studies” (Journal of Enzyme Inhibition and Medicinal Chemistry, 2022)
